According to paper PMC7456513 (ACS infectious diseases, 2020):
Read-outs that look alike come from different tables or passages of the source.

Columns and labels:
Test in all cases: tryptophan fluorescence quenching titration
Type in all cases: binding
[1] = target: T1, HasAp (Pseudomonas aeruginosa, UniProt G3XD33); conditions: read-out: KD (nM, ± SD)
[2] = target: T1, HasAp; conditions: read-out: KD (nM, ± SD); remark: listed apart in the source
[3] = target: T1, HasAp

## C1=[N+]2c3ccccc3[N+]3=Cc4ccccc4[O][Fe-]23[O]c2ccccc21 [FeSal]
[1]
  Kd: 1050 ± 100 nM

## C=CC1=C(C)C2=[N+]3C1=Cc1c(C)c(C=C)c4[n]1[Ga-]31[n]3c(c(C)c(CCC(=O)O)c3=CC3=[N+]1C(=C4)C(C)=C3CCC(=O)O)=C2 (stereo not shown) [GaPPIX]
[1]
  Kd: 280 ± 30 nM

## C1=[N+]2c3ccccc3[N+]3=Cc4ccccc4[O][Ga-]23[O]c2ccccc21 [GaSal]
[2]
  Kd: 2050 ± 280 nM

## C=CC1=C(C)C2=Cc3c(C=C)c(C)c4[n]3[Fe][n]3c(c(C)c(CCC(=O)O)c3=CC3=NC(=C4)C(C)=C3CCC(=O)O)=CC1=N2 [heme]
[3]
  Kd: 350 ± 50 nM
